Activity calls are given as the source filed them.
Key:
[1] = target: Transcriptional coactivator YAP1 (Homo sapiens) (UniProt P46937); assay: Inhibition of YAP1 in human NCI-H1703 cells assessed as suppression of PDK2 mRNA expression at 5 to 10 uM incubated for 72 hrs by RT-PCR method; format: cell-based
NCI-H1650 = assay: Inhibition of self-renewal capacity in cisplatin insensitive stem-like side-population cells of human NCI-H1650 cells assessed as reduction in number of spheres at 2 uM incubated for 5 days after 7 days cisplatin exposure by sphere formation assay; format: functional, cell-based
[2] = target: Transcriptional coactivator YAP1 (Homo sapiens) (UniProt P46937); assay: Inhibition of YAP1 in human NCI-H146 cells assessed as suppression of HK2 mRNA expression at 5 to 10 uM incubated for 72 hrs by RT-PCR method; format: cell-based
[3] = target: Transcriptional coactivator YAP1 (Homo sapiens) (UniProt P46937); assay: Inhibition of YAP1 in human NCI-H1650 cells assessed as suppression of PDK2 mRNA expression at 5 to 10 uM incubated for 72 hrs by RT-PCR method; format: cell-based
[4] = target: Transcriptional coactivator YAP1 (Homo sapiens) (UniProt P46937); assay: Inhibition of YAP1 in human NCI-H1650 cells assessed as suppression of PD-L1 mRNA expression at 5 to 10 uM incubated for 72 hrs by RT-PCR method; format: cell-based
[5] = target: Transcriptional coactivator YAP1 (Homo sapiens) (UniProt P46937); assay: Inhibition of YAP1 in human NCI-H146 cells assessed as suppression of PDK2 mRNA expression at 5 to 10 uM incubated for 72 hrs by RT-PCR method; format: cell-based
[6] = target: Transcriptional coactivator YAP1 (Homo sapiens) (UniProt P46937); assay: Inhibition of YAP1 in human NCI-H1703 cells assessed as suppression of HK2 mRNA expression at 5 to 10 uM incubated for 72 hrs by RT-PCR method; format: cell-based
[7] = target: Transcriptional coactivator YAP1 (Homo sapiens) (UniProt P46937); assay: Inhibition of YAP1 in human NCI-H1703 cells assessed as suppression of PD-L1 mRNA expression at 5 to 10 uM incubated for 72 hrs by RT-PCR method; format: cell-based
[8] = target: Transcriptional coactivator YAP1 (Homo sapiens) (UniProt P46937); assay: Inhibition of YAP1 in human NCI-H1650 cells assessed as suppression of HK2 mRNA expression at 5 to 10 uM incubated for 72 hrs by RT-PCR method; format: cell-based
[9] = target: Transcriptional coactivator YAP1 (Homo sapiens) (UniProt P46937); assay: Inhibition of YAP1 in human A549 cells assessed as suppression of CD40L level by cytokine array assay; format: cell-based
[10] = target: Transcriptional coactivator YAP1 (Homo sapiens) (UniProt P46937); assay: Inhibition of YAP1 in human A549 cells assessed as suppression of Serpine-E1 level by cytokine array assay; format: cell-based
[11] = target: Transcriptional coactivator YAP1 (Homo sapiens) (UniProt P46937); assay: Inhibition of YAP1 in human NCI-H1650 cells assessed as reduction in Sox2 protein expression at 5 uM by Western blot analysis; format: cell-based
[12] = target: Transcriptional coactivator YAP1 (Homo sapiens) (UniProt P46937); assay: Inhibition of YAP1 in human A549 cells assessed as suppression of MIF level by cytokine array assay; format: cell-based
[13] = target: Transcriptional coactivator YAP1 (Homo sapiens) (UniProt P46937); assay: Inhibition of YAP1 in human A549 cells assessed as suppression of CCL2 level in presence of cancer associated fibroblasts by cytokine array assay; format: cell-based
[14] = target: Transcriptional coactivator YAP1 (Homo sapiens) (UniProt P46937); assay: Inhibition of YAP1 in human A549 cells assessed as suppression of Serpine-E1 level in presence of cancer associated fibroblasts by cytokine array assay; format: cell-based
[15] = target: Transcriptional coactivator YAP1 (Homo sapiens) (UniProt P46937); assay: Inhibition of YAP1 in human A549 cells assessed as suppression of CXCL12 level in presence of cancer associated fibroblasts by cytokine array assay; format: cell-based
[16] = target: Transcriptional coactivator YAP1 (Homo sapiens) (UniProt P46937); assay: Inhibition of YAP1 in human A549 cells assessed as suppression of IL8 level in presence of cancer associated fibroblasts by cytokine array assay; format: cell-based
[17] = target: Transcriptional coactivator YAP1 (Homo sapiens) (UniProt P46937); assay: Inhibition of YAP1 in human A549 cells assessed as suppression of IL13 level by cytokine array assay; format: cell-based
[18] = target: Transcriptional coactivator YAP1 (Homo sapiens) (UniProt P46937); assay: Inhibition of YAP1 in human A549 cells assessed as suppression of IL18 level by cytokine array assay; format: cell-based
[19] = target: Transcriptional coactivator YAP1 (Homo sapiens) (UniProt P46937); assay: Inhibition of YAP1 in human A549 cells assessed as suppression of CXCL12 level by cytokine array assay; format: cell-based
[20] = target: Transcriptional coactivator YAP1 (Homo sapiens) (UniProt P46937); assay: Inhibition of YAP1 in human A549 cells assessed as suppression of CCL2 level by cytokine array assay; format: cell-based
[21] = target: Transcriptional coactivator YAP1 (Homo sapiens) (UniProt P46937); assay: Inhibition of YAP1 in human A549 cells assessed as suppression of ICAM1 level in presence of cancer associated fibroblasts by cytokine array assay; format: cell-based
[22] = target: Transcriptional coactivator YAP1 (Homo sapiens) (UniProt P46937); assay: Inhibition of YAP1 in human A549 cells assessed as suppression of IL6 level by cytokine array assay; format: cell-based
[23] = target: Transcriptional coactivator YAP1 (Homo sapiens) (UniProt P46937); assay: Inhibition of YAP1 in human A549 cells assessed as suppression of IL8 level by cytokine array assay; format: cell-based
[24] = target: Transcriptional coactivator YAP1 (Homo sapiens) (UniProt P46937); assay: Inhibition of YAP1 in human A549 cells assessed as reduction in Sox2 protein expression at 5 uM by Western blot analysis; format: cell-based
[25] = target: Transcriptional coactivator YAP1 (Homo sapiens) (UniProt P46937); assay: Inhibition of YAP1 in human A549 cells assessed as suppression of IL6 level in presence of cancer associated fibroblasts by cytokine array assay; format: cell-based
[26] = target: Transcriptional coactivator YAP1 (Homo sapiens) (UniProt P46937); assay: Inhibition of YAP1 in human A549 cells assessed as suppression of IL32-alpha level by cytokine array assay; format: cell-based
[27] = target: Transcriptional coactivator YAP1 (Homo sapiens) (UniProt P46937); assay: Inhibition of YAP1 in human A549 cells assessed as suppression of IL1alpha level by cytokine array assay; format: cell-based
[28] = target: Transcriptional coactivator YAP1 (Homo sapiens) (UniProt P46937); assay: Inhibition of YAP1 in human A549 cells assessed as suppression of ICAM1 level by cytokine array assay; format: cell-based
[29] = target: Transcriptional coactivator YAP1 (Homo sapiens) (UniProt P46937); assay: Inhibition of YAP1 in human A549 cells assessed as suppression of CXCL1 level by cytokine array assay; format: cell-based
[30] = target: Transcriptional coactivator YAP1 (Homo sapiens) (UniProt P46937); assay: Inhibition of YAP1 in human A549 cells assessed as suppression of MIF level in presence of cancer associated fibroblasts by cytokine array assay; format: cell-based

Measured: inhibition

Sequence of Transcriptional coactivator YAP1 (Homo sapiens) (P46937 whole entry): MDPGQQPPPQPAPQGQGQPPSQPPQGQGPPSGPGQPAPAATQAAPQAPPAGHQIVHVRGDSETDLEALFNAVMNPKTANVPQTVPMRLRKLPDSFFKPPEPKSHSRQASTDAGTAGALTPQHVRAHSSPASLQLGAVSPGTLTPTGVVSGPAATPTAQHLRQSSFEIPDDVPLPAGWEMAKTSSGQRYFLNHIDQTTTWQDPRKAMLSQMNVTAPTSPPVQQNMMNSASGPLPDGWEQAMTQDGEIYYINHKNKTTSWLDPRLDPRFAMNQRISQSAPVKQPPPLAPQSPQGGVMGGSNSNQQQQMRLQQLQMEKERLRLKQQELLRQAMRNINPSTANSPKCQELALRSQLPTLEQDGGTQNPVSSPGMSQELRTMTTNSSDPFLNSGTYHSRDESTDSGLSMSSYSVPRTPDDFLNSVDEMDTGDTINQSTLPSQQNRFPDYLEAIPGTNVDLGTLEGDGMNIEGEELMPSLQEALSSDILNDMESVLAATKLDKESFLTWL

COC(=O)[C@H](Cc1ccc(OCc2ccccc2)cc1)NC(=O)CC1CCN(C(=O)CCc2ccc(Cl)c(Cl)c2)CC1
active: [1] | NCI-H1650 | [2] | [3] | [4] | [5] | [6] | [7] | [8]

COC(=O)[C@H](Cc1ccc(OCc2ccccc2)cc1)NC(=O)CC1CCN(C(=O)CCc2ccc(C#N)cc2)CC1
not listed: [1] | NCI-H1650 | [2] | [3] | [4] | [5] | [6] | [7] | [8]
active: all other assays above
